Measured values reported in ChEMBL document CHEMBL5608141, “Identification of compartment-specific drug sensitivities in CRC organoid-stroma co-cultures” (2024).
Several values for one entry are separate records, joined by “and”; a condition that tells them apart may be missing. Equal values may be shown once.

Legend:
Type in all cases: functional, Homo sapiens
Set-up in all cases: dose or concentration left out as unconfirmed
Colon cancer organoid [1] = assay: Identification of compartment-specific drug sensitivities in O14 CRC organoid-stroma F14 CAF co-cultures. Organoid is transduced with Lucferase2-P2A-EGFP lentivirus, fibroblast with Renilla-dsRed lentivirus. Dual-Glo Luciferase assay is used to report viability data.
Colon cancer organoid [2] = assay: Identification of compartment-specific drug sensitivities in O20 CRC organoid-stroma F20 CAF co-cultures. Organoid is transduced with Lucferase2-P2A-EGFP lentivirus, fibroblast with Renilla-dsRed lentivirus. Dual-Glo Luciferase assay is used to report viability data.
Colon cancer organoid [3] = assay: Identification of compartment-specific drug sensitivities in O06 CRC organoid-stroma F06 CAF co-cultures. Organoid is transduced with Lucferase2-P2A-EGFP lentivirus, fibroblast with Renilla-dsRed lentivirus. Dual-Glo Luciferase assay is used to report viability data.
[4] = Transduced with Lucferase2-P2A-EGFP lentivirus
[5] = Transduced with Renilla-dsRed lentivirus

Cc1ccc(-c2ccc3c(ccc4sc5c(c43)NC[C@@H](C)NC5=O)n2)cn1
Cell Viability (Colon cancer organoid [1]; [4]): 77.4963% | Cell Viability (Colon cancer organoid [1]; [5]): 56.184% | Cell Viability (Colon cancer organoid [2]; [4]): 154.003% | Cell Viability (Colon cancer organoid [2]; [5]): 70.7863% | Cell Viability (Colon cancer organoid [3]; [4]): 100.355% | Cell Viability (Colon cancer organoid [3]; [5]): 85.371%

CCOC(=O)c1c(/C(C#N)=C\N)c2ccc(Cl)c(Cl)c2n1C
Cell Viability (Colon cancer organoid [1]; [4]): 89.9628% | Cell Viability (Colon cancer organoid [1]; [5]): 62.6784% | Cell Viability (Colon cancer organoid [2]; [4]): 91.9928% | Cell Viability (Colon cancer organoid [2]; [5]): 87.4636% | Cell Viability (Colon cancer organoid [3]; [4]): 122.99% | Cell Viability (Colon cancer organoid [3]; [5]): 97.4073%

CCOc1cc(N2CCC(O)CC2)ccc1Nc1ncc2c(n1)N(C)c1ccccc1C(=O)N2C
Cell Viability (Colon cancer organoid [1]; [4]): 113.616% | Cell Viability (Colon cancer organoid [1]; [5]): 107.398% | Cell Viability (Colon cancer organoid [2]; [4]): 81.3429% | Cell Viability (Colon cancer organoid [2]; [5]): 117.331% | Cell Viability (Colon cancer organoid [3]; [4]): 85.6087% | Cell Viability (Colon cancer organoid [3]; [5]): 128.987%

CNc1nc(-c2ccc3c(N)n[nH]c3c2)cc(N2C[C@@H](C(=O)NC3CCCCC3)CC[C@H]2C)n1
Cell Viability (Colon cancer organoid [1]; [4]): 65.7783% | Cell Viability (Colon cancer organoid [1]; [5]): 53.252% | Cell Viability (Colon cancer organoid [2]; [4]): 52.0118% | Cell Viability (Colon cancer organoid [2]; [5]): 121.574% | Cell Viability (Colon cancer organoid [3]; [4]): 59.8926% | Cell Viability (Colon cancer organoid [3]; [5]): 53.4401%

Cc1ccc(NC(=O)Nc2cc(C(F)(F)F)ccc2F)cc1Nc1ccc2c(c1)NC(=O)/C2=C\c1ccc[nH]1
Cell Viability (Colon cancer organoid [1]; [4]): 123.441% | Cell Viability (Colon cancer organoid [1]; [5]): 77.7474% | Cell Viability (Colon cancer organoid [2]; [4]): 98.8429% | Cell Viability (Colon cancer organoid [2]; [5]): 67.3177% | Cell Viability (Colon cancer organoid [3]; [4]): 46.1941% | Cell Viability (Colon cancer organoid [3]; [5]): 95.0963%

OCCn1cc(-c2ccc3c(c2)CCC3=NO)c(-c2ccncc2)n1
Cell Viability (Colon cancer organoid [1]; [4]): 204.013% | Cell Viability (Colon cancer organoid [1]; [5]): 111.094% | Cell Viability (Colon cancer organoid [2]; [4]): 203.673% | Cell Viability (Colon cancer organoid [2]; [5]): 70.8995% | Cell Viability (Colon cancer organoid [3]; [4]): 81.3359% | Cell Viability (Colon cancer organoid [3]; [5]): 109.303%

Nc1ccc(C(=O)Nc2cccc(-c3nc(N4CCOCC4)c4oc5ncccc5c4n3)c2)cn1
Cell Viability (Colon cancer organoid [1]; [4]): 65.9749% | Cell Viability (Colon cancer organoid [1]; [5]): 77.6378% | Cell Viability (Colon cancer organoid [2]; [4]): 141.773% | Cell Viability (Colon cancer organoid [2]; [5]): 75.1771% | Cell Viability (Colon cancer organoid [3]; [4]): 78.745% | Cell Viability (Colon cancer organoid [3]; [5]): 81.5262%

O=C1[C@H](Cc2ccc(O)cc2)N2C(=O)CCN(C(=O)NCc3ccccc3)[C@H]2CN1Cc1cccc2ccccc12
Cell Viability (Colon cancer organoid [1]; [4]): 38.6094% | Cell Viability (Colon cancer organoid [1]; [5]): 83.3915% | Cell Viability (Colon cancer organoid [2]; [4]): 90.1159% | Cell Viability (Colon cancer organoid [2]; [5]): 144.616% | Cell Viability (Colon cancer organoid [3]; [4]): 79.2211% | Cell Viability (Colon cancer organoid [3]; [5]): 124.216%

CCOC(=O)Nc1cc(-c2ccc(C)c(NS(C)(=O)=O)c2)nn2c(C)nnc12
Cell Viability (Colon cancer organoid [1]; [4]): 91.5211% | Cell Viability (Colon cancer organoid [1]; [5]): 161.373% | Cell Viability (Colon cancer organoid [2]; [4]): 38.74% | Cell Viability (Colon cancer organoid [2]; [5]): 177.965% | Cell Viability (Colon cancer organoid [3]; [4]): 112.605% | Cell Viability (Colon cancer organoid [3]; [5]): 266.102%

COc1ccccc1-c1cc(Nc2cccc(CS(N)(=O)=O)c2)ncn1
Cell Viability (Colon cancer organoid [1]; [4]): 188.969% | Cell Viability (Colon cancer organoid [1]; [5]): 77.1823% | Cell Viability (Colon cancer organoid [2]; [4]): 105.142% | Cell Viability (Colon cancer organoid [2]; [5]): 97.4583% | Cell Viability (Colon cancer organoid [3]; [4]): 105.6% | Cell Viability (Colon cancer organoid [3]; [5]): 95.8866%

COc1ccccc1C(=O)Nc1cc2c(cc1N1CCCC1)n(C)c(=O)n2C
Cell Viability (Colon cancer organoid [2]; [4]): 114.161% | Cell Viability (Colon cancer organoid [2]; [5]): 143.545%

Cc1ccc(C(=O)Nc2cccc(C(F)(F)F)c2)cc1Nc1nc(-c2cccnc2)nc2c1cnn2C
Cell Viability (Colon cancer organoid [1]; [4]): 129.491% | Cell Viability (Colon cancer organoid [1]; [5]): 76.0508% | Cell Viability (Colon cancer organoid [2]; [4]): 143.016% | Cell Viability (Colon cancer organoid [2]; [5]): 123.917% | Cell Viability (Colon cancer organoid [3]; [4]): 60.2736% | Cell Viability (Colon cancer organoid [3]; [5]): 70.9034%

CC1=C(C(=O)Nc2cc3cn[nH]c3cc2F)C(c2ccc(C(F)(F)F)cc2)CC(=O)N1 (centres undefined)
Cell Viability (Colon cancer organoid [1]; [4]): 103.838% | Cell Viability (Colon cancer organoid [1]; [5]): 118.18% | Cell Viability (Colon cancer organoid [2]; [4]): 133.463% | Cell Viability (Colon cancer organoid [2]; [5]): 94.2958% | Cell Viability (Colon cancer organoid [3]; [4]): 110.512% | Cell Viability (Colon cancer organoid [3]; [5]): 74.1449%

CCOc1cn(-c2ccc(F)cc2C)nc1C(=O)Nc1ccc(Oc2ccnc3cc(OC)c(OC)cc23)c(F)c1
Cell Viability (Colon cancer organoid [1]; [4]): 83.4563% and 72.9507% | Cell Viability (Colon cancer organoid [1]; [5]): 89.3323% and 81.5085% | Cell Viability (Colon cancer organoid [2]; [4]): 229.393% and 192.525% | Cell Viability (Colon cancer organoid [2]; [5]): 78.4446% and 96.4847% | Cell Viability (Colon cancer organoid [3]; [4]): 87.51% and 89.4828% | Cell Viability (Colon cancer organoid [3]; [5]): 84.5689% and 64.7371%

COc1cc(-c2cn(C)c(=O)c3cnccc23)c(OC)cc1CN(C)C
Cell Viability (Colon cancer organoid [1]; [4]): 100.672% | Cell Viability (Colon cancer organoid [1]; [5]): 88.7606% | Cell Viability (Colon cancer organoid [2]; [4]): 61.6023% | Cell Viability (Colon cancer organoid [2]; [5]): 139.676% | Cell Viability (Colon cancer organoid [3]; [4]): 79.252% | Cell Viability (Colon cancer organoid [3]; [5]): 108.934%

CC(C)Oc1ccc(-c2c[nH]cc2CN(C)CCN)cc1
Cell Viability (Colon cancer organoid [1]; [4]): 53.8658% | Cell Viability (Colon cancer organoid [1]; [5]): 109.482% | Cell Viability (Colon cancer organoid [2]; [4]): 47.8011% | Cell Viability (Colon cancer organoid [2]; [5]): 252.195% | Cell Viability (Colon cancer organoid [3]; [4]): 47.5822% | Cell Viability (Colon cancer organoid [3]; [5]): 178.793%

C=CC(=O)Nc1cccc(C(=O)Nc2ccc(Nc3cc(-c4[nH]c(SC)nc4C)ccn3)cc2)c1
Cell Viability (Colon cancer organoid [1]; [4]): 116.406% | Cell Viability (Colon cancer organoid [1]; [5]): 116.909% | Cell Viability (Colon cancer organoid [2]; [4]): 175.79% | Cell Viability (Colon cancer organoid [2]; [5]): 71.728% | Cell Viability (Colon cancer organoid [3]; [4]): 87.3077% | Cell Viability (Colon cancer organoid [3]; [5]): 89.5907%

CCN(CC)S(=O)(=O)Nc1cccc(-c2ccc3c(NC(=O)C4CC4)n[nH]c3c2)c1
Cell Viability (Colon cancer organoid [1]; [4]): 139.261% | Cell Viability (Colon cancer organoid [1]; [5]): 96.9304% | Cell Viability (Colon cancer organoid [2]; [4]): 76.1767% | Cell Viability (Colon cancer organoid [2]; [5]): 136.148% | Cell Viability (Colon cancer organoid [3]; [4]): 76.8554% | Cell Viability (Colon cancer organoid [3]; [5]): 107.031%

CC(C)C(=O)Nc1n[nH]c2cc(-c3cccc(NS(=O)(=O)C4CC4)c3)ccc12
Cell Viability (Colon cancer organoid [1]; [4]): 122.353% | Cell Viability (Colon cancer organoid [1]; [5]): 104.553% | Cell Viability (Colon cancer organoid [2]; [4]): 85.5363% | Cell Viability (Colon cancer organoid [2]; [5]): 102.387% | Cell Viability (Colon cancer organoid [3]; [4]): 78.2505% | Cell Viability (Colon cancer organoid [3]; [5]): 111.722%

CN(C)C(=O)/C(C#N)=C/c1ccc(-c2nc3cnc4[nH]ccc4c3n2C2CCCCC2)o1
Cell Viability (Colon cancer organoid [1]; [4]): 107.956% | Cell Viability (Colon cancer organoid [1]; [5]): 74.8679% | Cell Viability (Colon cancer organoid [2]; [4]): 75.2682% | Cell Viability (Colon cancer organoid [2]; [5]): 130.215% | Cell Viability (Colon cancer organoid [3]; [4]): 57.9428% | Cell Viability (Colon cancer organoid [3]; [5]): 82.2998%

Cl.Cl.NC1(c2ccc(-c3nc4ccn5c(=O)[nH]nc5c4cc3-c3ccccc3)cc2)CCC1
Cell Viability (Colon cancer organoid [1]; [4]): 76.882% | Cell Viability (Colon cancer organoid [1]; [5]): 55.4067% | Cell Viability (Colon cancer organoid [2]; [4]): 44.0229% | Cell Viability (Colon cancer organoid [2]; [5]): 145.22% | Cell Viability (Colon cancer organoid [3]; [4]): 59.9467% | Cell Viability (Colon cancer organoid [3]; [5]): 67.7481%

Cn1cc(-c2ccc3occ(-c4ccccc4-c4ccccc4)c3n2)cn1
Cell Viability (Colon cancer organoid [1]; [4]): 109.875% | Cell Viability (Colon cancer organoid [1]; [5]): 78.5125% | Cell Viability (Colon cancer organoid [2]; [4]): 88.7548% | Cell Viability (Colon cancer organoid [2]; [5]): 89.3741% | Cell Viability (Colon cancer organoid [3]; [4]): 43.2566% | Cell Viability (Colon cancer organoid [3]; [5]): 104.957%

Cn1cc(-c2ccc3occ(-c4cccc(-c5ccncc5)c4)c3n2)cn1
Cell Viability (Colon cancer organoid [1]; [4]): 87.0505% | Cell Viability (Colon cancer organoid [1]; [5]): 83.2978% | Cell Viability (Colon cancer organoid [2]; [4]): 65.7439% | Cell Viability (Colon cancer organoid [2]; [5]): 132.411% | Cell Viability (Colon cancer organoid [3]; [4]): 70.7683% | Cell Viability (Colon cancer organoid [3]; [5]): 132.305%

CN(C)C(=O)/C(C#N)=C/c1ccc(-c2nc3cnc4c(ccn4C)c3n2C2CCCCC2)o1
Cell Viability (Colon cancer organoid [1]; [4]): 110.125% | Cell Viability (Colon cancer organoid [1]; [5]): 86.2886% | Cell Viability (Colon cancer organoid [2]; [4]): 49.7098% | Cell Viability (Colon cancer organoid [2]; [5]): 127.191% | Cell Viability (Colon cancer organoid [3]; [4]): 28.6002% | Cell Viability (Colon cancer organoid [3]; [5]): 127.582%

CS(=O)(=O)N1CCN(Cc2cc3nc(-c4cccc5[nH]ncc45)nc(N4CCOCC4)c3s2)CC1 [PICTILISIB]
Cell Viability (Colon cancer organoid [1]; [4]): 42.7401% | Cell Viability (Colon cancer organoid [1]; [5]): 54.6957% | Cell Viability (Colon cancer organoid [3]; [4]): 43.124% | Cell Viability (Colon cancer organoid [3]; [5]): 60.0718%
